Laboratory results as given in patent US20230091225A1, “Bifunctional chimeric heterocyclic compounds for targeted degradation of androgen receptors and use thereof” (HINOVA PHARMACEUTICALS INC., priority 2019, published 2023).
Like-named read-outs stand apart in the source and are kept apart here.

Experiments:
Assay type in all cases: cell-based
[1] = tested on: LNCaP/AR cells; experiment: Inhibition of proliferation of LNCaP/AR prostate cancer cells (CCK-8)
[2] = molecular target: T1, androgen receptor (AR) (Homo sapiens, UniProt P10275); experiment: Degradation of androgen receptor (AR) protein in VCaP cells by ELISA; conditions: for inhibition at 0.1 µM: read-out: % degradation
T1 sequence (P10275 1-920): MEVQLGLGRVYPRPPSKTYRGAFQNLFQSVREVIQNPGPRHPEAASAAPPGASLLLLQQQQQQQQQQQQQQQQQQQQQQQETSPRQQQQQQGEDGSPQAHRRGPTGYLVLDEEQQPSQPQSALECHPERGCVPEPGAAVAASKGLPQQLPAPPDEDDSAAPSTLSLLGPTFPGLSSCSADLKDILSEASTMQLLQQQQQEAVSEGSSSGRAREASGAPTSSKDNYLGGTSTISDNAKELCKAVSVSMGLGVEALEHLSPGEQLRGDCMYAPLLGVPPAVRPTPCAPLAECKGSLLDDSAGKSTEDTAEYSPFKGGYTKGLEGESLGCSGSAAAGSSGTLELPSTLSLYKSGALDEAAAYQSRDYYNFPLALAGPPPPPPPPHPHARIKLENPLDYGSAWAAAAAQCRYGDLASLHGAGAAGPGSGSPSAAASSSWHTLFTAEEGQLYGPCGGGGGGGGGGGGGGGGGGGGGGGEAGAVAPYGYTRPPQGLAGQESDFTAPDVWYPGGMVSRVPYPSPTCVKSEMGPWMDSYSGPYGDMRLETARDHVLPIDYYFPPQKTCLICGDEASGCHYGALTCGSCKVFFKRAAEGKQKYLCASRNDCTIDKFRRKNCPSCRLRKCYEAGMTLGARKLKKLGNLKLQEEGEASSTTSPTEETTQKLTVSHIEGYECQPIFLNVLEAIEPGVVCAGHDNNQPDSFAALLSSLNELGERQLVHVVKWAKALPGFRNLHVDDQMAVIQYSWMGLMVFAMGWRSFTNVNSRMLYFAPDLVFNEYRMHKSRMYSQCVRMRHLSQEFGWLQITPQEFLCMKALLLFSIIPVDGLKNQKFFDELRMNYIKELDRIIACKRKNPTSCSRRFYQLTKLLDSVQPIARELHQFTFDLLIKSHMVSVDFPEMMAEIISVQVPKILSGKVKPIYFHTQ

[3] = molecular target: T1, androgen receptor (AR); experiment: Degradation of androgen receptor (AR) protein in VCaP cells by Western blot; conditions: percentage of degraded AR at 100 nM, VCaP cells, 16 h
Summary of the method: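 AR and β-actin levels were read by Western blot with ECL detection, loading 30 μg lysate protein per well. Before lysis, VCaP cells seeded at 5×10^5/well and grown overnight were exposed to compound for 16 h, two wells per concentration, keeping DMSO at 0.1%.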

[4] = 144 h, proliferation of LNCap/AR cells, 6 days, CCK-8, read-out: IC50
[5] = percentage of degraded AR at 100 nM, VCaP cells, 16 h, ELISA
[6] = proliferation of LNCap/AR cells, 6 days, CCK-8, read-out: IC50

Row | IC50 [1, 4] [nM] | inhibition at 0.1 µM [2, 5] [%] | inhibition at 0.1 µM [3] [%] | Compound | also measured
1 | > 1000 | < 25 | < 25 | N#Cc1ccc(O[C@H]2CC[C@H](N3Cc4nc(N5CCC(OC6CCN(c7cccc8c7C(=O)N(C7CCC(=O)NC7=O)C8=O)CC6)CC5)ccc4C3=O)CC2)cc1Cl (stereo partly shown) [Compound 59, 2-chloro-4-(((1r,4r)-4-(2-(4-((1-(2-(2,6-dioxopiperidin-3-yl)-1,3-dioxoisoindolin-4-yl)piperidine-4-yl)oxy)piperidin-1-yl)-5-oxo-5H-pyrrolo[3,4-b]pyridin-6(7H)-yl)cyclohexyl)oxy)benzonitrile] | –
2 | < 100 | – | 50 to 79 | CC1(C)[C@H](NC(=O)c2ccc(N3CCC(CN4CCN(c5cc6c(cc5F)CN(C5CCC(=O)NC5=O)C6=O)CC4)CC3)nc2)C(C)(C)[C@H]1Oc1ccc(C#N)c(Cl)c1 (stereo partly shown) [Compound 214] | –
3 | – | – | – | CC1(C)C(Oc2ccc(C#N)c(Cl)c2)C(C)(C)C1N1Cc2nc(N3CCC(CN4CCN(c5cc6c(cc5F)CN([C@@H]5CCC(=O)NC5=O)C6=O)CC4)CC3)ccc2C1=O (stereo partly shown) [Compound 211] | IC50 [1, 6]: 100 to 500 nM; % degradation [3]: D (<25%)
4 | 100 to 500 | – | 25 to 49 | CC1(C)[C@H](Oc2ccc(C#N)c(Cl)c2)C(C)(C)[C@H]1N1Cc2cc(N3CCC(CN4CCN(c5cc6c(cc5F)C(=O)N(C5CCC(=O)NC5=O)C6)CC4)CC3)ccc2C1=O (stereo partly shown) [Compound 251] | –
5 | < 100 | – | < 25 | CC1(C)[C@H](Oc2ccc(C#N)c(Cl)c2)C(C)(C)[C@H]1N1Cc2nc(N3CCC(CN4CCN(c5cc6c(cc5F)CN(C5CCC(=O)NC5=O)C6=O)CC4)CC3)ccc2C1=O (stereo partly shown) [Compound 205] | –
6 | 100 to 500 | – | < 25 | CC1(C)[C@H](Oc2ccc(C#N)c(Cl)c2)C(C)(C)[C@H]1N1Cc2cc(N3CCC(CN4CCN(c5ccc6c(c5)C(=O)N(C5CCC(=O)NC5=O)C6=O)CC4)CC3)ccc2C1=O (stereo partly shown) [Compound 249] | –
7 | > 1000 | – | < 25 | N#Cc1ccc(OC2C[C@@H]3CN(C(=O)c4ccc(N5CCC(CN6CCN(c7ccc8c(c7)C(=O)N(C7CCC(=O)NC7=O)C8=O)CC6)CC5)nn4)C[C@@H]3C2)cc1Cl (stereo partly shown) [Compound 218] | –
8 | < 100 | > 80 | – | Cc1ncsc1-c1ccc(C2(NC(=O)[C@H]3C[C@@H](O)CN3C(=O)[C@@H](NC(=O)COCCCCC#Cc3ccc(C(=O)N[C@H]4C(C)(C)[C@H](Oc5ccc(C#N)c(Br)c5)C4(C)C)cc3)C(C)(C)C)CC2)cc1 [Compound 9, (2R,4R)-1-((S)-2-(2-((6-(4-(((1R,3R)-3-(3-bromo-4-cyanophenoxy)-2,2,4,4-tetramethylcyclobutyl)carbamoyl)phenyl)hex-5-yn-1-yl)oxy)acetylamino)-3,3-dimethylbutyryl)-4-hydroxy-N-(1-(4-(4-methyl-5-yl)phenyl)cyclopropyl) pyrrolidine-2-carboxamide] | –
9 | < 100 | < 25 | – | [2H]C([2H])([2H])N(C(=O)c1ccc(C#CCCOCC(=O)N[C@H](C(=O)N2C[C@H](O)C[C@H]2C(=O)N[C@@H](C)c2ccc(-c3scnc3C)cc2)C(C)(C)C)cc1)[C@H]1C(C)(C)[C@H](Oc2ccc(C#N)c(Cl)c2)C1(C)C [Compound 26] | –
10 | < 100 | 50 to 79 | – | Cc1ncsc1-c1ccc([C@H](C)NC(=O)[C@@H]2C[C@@H](O)CN2C(=O)[C@@H](NC(=O)COCCCN2CCN(c3ccc4c(c3)CN(C3C(C)(C)C(Oc5ccc(C#N)c(Cl)c5)C3(C)C)C4=O)CC2)C(C)(C)C)cc1 (stereo partly shown) [Compound 31] | –
11 | > 1000 | 25 to 49 | – | N#Cc1ccc(O[C@H]2CC[C@H](N3Cc4nc(N5CC[C@@H](CN6CCN(c7cc8c(cc7F)CN(C7CCC(=O)NC7=O)C8=O)CC6)C5)ccc4C3=O)CC2)cc1Cl (stereo partly shown) [Compound 54] | –
12 | – | – | – | Cc1ncsc1-c1ccc([C@H](C)NC(=O)[C@@H]2C[C@@H](O)CN2C(=O)[C@@H](NC(=O)Cn2cc(C#Cc3ccc4c(c3)CN(C3C(C)(C)C(Oc5ccc(C#N)c(Cl)c5)C3(C)C)C4=O)cn2)C(C)(C)C)cc1 (stereo partly shown) [Compound 11] | IC50 [1, 6]: < 100 nM; % degradation [2, 5]: B (79%-50%)
13 | > 1000 | < 25 | – | N#Cc1ccc(O[C@H]2CC[C@H](N3Cc4nc(N5CCC(OC6CCN(c7ccc8c(c7)C(=O)N(C7CCC(=O)NC7=O)C8=O)CC6)CC5)ccc4C3=O)CC2)cc1Cl (stereo partly shown) [Compound 60, 2-chloro-4-(((1r,4r)-4-(2-(4-((1-(2-(2,6-dioxopiperidin-3-yl)-1,3-dioxoisoindolin-5-yl)piperidine-4-yl)oxy)piperidin-1-yl)-5-oxo-5H-pyrrolo[3,4-b]pyridin-6(7H)-yl)cyclohexyl)oxy)benzonitrile] | –
14 | 100 to 500 | 0 | – | [2H]C([2H])([2H])N(C(=O)c1ccc(C#CCCCCOCC(=O)N[C@H](C(=O)N2C[C@H](O)C[C@H]2C(=O)N[C@@H](C)c2ccc(-c3scnc3C)cc2)C(C)(C)C)nc1)[C@H]1C(C)(C)[C@H](Oc2ccc(C#N)c(Cl)c2)C1(C)C [Compound 33] | –
15 | – | – | – | (2R,4R)-1-((S)-2-(2-((5-((2-((1r,3r)-3-(4-cyano-3-(trifluoromethyl) phenoxy)-2,2,4,4-tetramethylcyclobutyl)-1-oxoisoindolin-5-yl)amino)phenyl)oxy) acetylamino)-3,3-dimethylbutyryl)-4-hydroxy-N-((R)-1-(4-(4-methylthiazol-5-yl)phenyl)ethyl)pyrrole-2-formamide [Compound 16] | IC50 [1, 6]: < 100 nM; % degradation [2]: C (key: A: >80%; B: 79%-50%; C: 49%-25%; D: <25%)
16 | – | – | – | N#Cc1ccc(O[C@H]2CC[C@H](N3Cc4nc(N5CCC(CN6CCN(c7ccc8c(c7)C(=O)N(C7CCC(=O)NC7=O)C8=O)CC6)CC5)ccc4C3=O)CC2)cc1Cl (stereo partly shown) [Compound 57] | IC50 [1]: > 1000 nM; % degradation [2]: D (key: A: >80%; B: 79%-50%; C: 49%-25%; D: <25%)
17 | < 100 | 50 to 79 | – | Cc1ncsc1-c1ccc([C@H](C)NC(=O)[C@@H]2C[C@@H](O)CN2C(=O)[C@@H](NC(=O)CCn2cc(C#Cc3ccc4c(c3)CN([C@H]3C(C)(C)[C@H](Oc5ccc(C#N)c(Cl)c5)C3(C)C)C4=O)cn2)C(C)(C)C)cc1 [Compound 42] | –
18 | – | – | – | CC(=O)O[C@@H]1C[C@H](C(=O)N[C@@H](C)c2ccc(-c3scnc3C)cc2)N(C(=O)[C@@H](NC(=O)COCCCCC#Cc2ccc3c(c2)C(=O)N(C2C(C)(C)C(Oc4ccc(C#N)c(Cl)c4)C2(C)C)C3)C(C)(C)C)C1 (stereo partly drawn) [Compound 4, (3R,5R)-1-((S)-2-(2-((6-(2-((1R,3R)-3-(3-chloro-4-cyanophenoxy)-2,2,4,4-tetramethylcyclobutyl)-3-oxoisoindolin-5-yl)hex-5-yn-1-yl)oxy)acetylamino)-3,3-dimethylbutyryl)-5-(((S)-1-(4-(4-methylthiazol-5-yl)phenyl)ethyl)carbamoyl) pyrrolidin-3-yl acetate] | IC50 [1, 6]: < 100 nM; % degradation [2]: C (key: A: >80%; B: 79%-50%; C: 49%-25%; D: <25%)
19 | > 1000 | < 25 | – | CC(=O)O[C@@H]1C[C@@H](C(=O)N[C@@H](C)c2ccc(-c3scnc3C)cc2)N(C(=O)[C@@H](NC(=O)COCCCCCNc2ccc(NC(=O)N[C@H]3C(C)(C)[C@H](Oc4ccc(C#N)c(Cl)c4)C3(C)C)cc2)C(C)(C)C)C1 [Compound 1, (3R,5S)-1-((S)-2-(2-((5-((4-(3-((1R,3R)-3-(3-chloro-4-cyanophenoxy)-2,2,4,4-tetramethylcyclobutyl)ureido)phenyl)amino)pentyl)oxy)acetylamino)-3,3-dimethylbutyryl)-5-(((S)-1-(4-(4-methylthiazol-5-yl))phenyl)ethyl)carbamoyl) pyrrolidin-3-yl acetate] | –

Row | Compound | IC50 [1, 4] [nM] | inhibition at 0.1 µM [2, 5] [%] | inhibition at 0.1 µM [3] [%] | also measured
20 | CC1(C)[C@H](Oc2ccc(C#N)c(Cl)c2)C(C)(C)[C@H]1N1Cc2cc(N3CCC(CN4CCN(c5ccc6c(c5)CN(C5CCC(=O)NC5=O)C6=O)CC4)CC3)ccc2C1=O (stereo partly shown) [Compound 248] | – | – | < 25 | IC50 ([1]; LNCaP/AR, 144 h): 100 to 500 nM
21 | N#Cc1ccc(O[C@H]2CC[C@H](NC(=O)c3ccc(N4CCC(NC5CCN(c6cc7c(cc6F)C(=O)N(C6CCC(=O)NC6=O)C7=O)CC5)CC4)cc3)CC2)cc1Cl (stereo partly shown) [Compound 219, N-((1r,4r)-4-(3-chloro-4-cyanophenoxy)cyclohexyl)-4-(4-((1-(2-(2,6-dioxopiperidin-3-yl)-6-fluoro-1,3-dioxoisoindolin-5-yl)piperidine-4-yl)amino)piperidin-1-yl)benzamide] | – | – | 25 to 49 | IC50 ([1]; LNCaP/AR, 144 h): 500 to 1000 nM
